Measurements reported in ChEMBL document CHEMBL1268897, “Discovery and optimization of adamantyl carbamate inhibitors of 11β-HSD1” (Bioorg Med Chem Lett, 2010).

Experiments:
[1] = target: T1, 11-beta-hydroxysteroid dehydrogenase 1 (Homo sapiens, UniProt P28845); assay: Inhibition of recombinant 11betaHSD1 expressed in CHO cells assessed as [3H]-cortisone to [3H]-cortisol by microscintillation plate reader; format: cell-based
[2] = target: T1, 11-beta-hydroxysteroid dehydrogenase 1; assay: Inhibition of 11betaHSD1 in human platelet assessed as [3H]-cortisone to [3H]-cortisol by microscintillation plate reader
Cytochrome P450 2C9 = Cytochrome P450 2C9 (Homo sapiens, UniProt P11712); assay: Inhibition of CYP2C9; format: ADME
Sequence of Cytochrome P450 2C9 (P11712 whole entry): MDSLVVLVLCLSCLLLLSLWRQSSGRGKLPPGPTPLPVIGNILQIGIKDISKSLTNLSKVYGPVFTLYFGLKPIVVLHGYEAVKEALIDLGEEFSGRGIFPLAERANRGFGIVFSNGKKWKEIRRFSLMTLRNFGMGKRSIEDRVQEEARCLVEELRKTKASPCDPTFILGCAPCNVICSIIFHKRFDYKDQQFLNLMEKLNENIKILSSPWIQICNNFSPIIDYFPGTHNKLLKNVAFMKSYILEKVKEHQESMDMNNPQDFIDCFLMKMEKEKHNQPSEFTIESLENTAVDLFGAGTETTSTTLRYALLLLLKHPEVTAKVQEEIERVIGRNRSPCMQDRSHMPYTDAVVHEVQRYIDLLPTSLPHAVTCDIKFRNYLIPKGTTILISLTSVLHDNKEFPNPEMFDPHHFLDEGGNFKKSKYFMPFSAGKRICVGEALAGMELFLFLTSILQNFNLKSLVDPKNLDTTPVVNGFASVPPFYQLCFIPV

Cytochrome P450 2D6 = Cytochrome P450 2D6 (Homo sapiens, UniProt P10635); assay: Inhibition of CYP2D6; format: ADME
Sequence of Cytochrome P450 2D6 (P10635 whole entry): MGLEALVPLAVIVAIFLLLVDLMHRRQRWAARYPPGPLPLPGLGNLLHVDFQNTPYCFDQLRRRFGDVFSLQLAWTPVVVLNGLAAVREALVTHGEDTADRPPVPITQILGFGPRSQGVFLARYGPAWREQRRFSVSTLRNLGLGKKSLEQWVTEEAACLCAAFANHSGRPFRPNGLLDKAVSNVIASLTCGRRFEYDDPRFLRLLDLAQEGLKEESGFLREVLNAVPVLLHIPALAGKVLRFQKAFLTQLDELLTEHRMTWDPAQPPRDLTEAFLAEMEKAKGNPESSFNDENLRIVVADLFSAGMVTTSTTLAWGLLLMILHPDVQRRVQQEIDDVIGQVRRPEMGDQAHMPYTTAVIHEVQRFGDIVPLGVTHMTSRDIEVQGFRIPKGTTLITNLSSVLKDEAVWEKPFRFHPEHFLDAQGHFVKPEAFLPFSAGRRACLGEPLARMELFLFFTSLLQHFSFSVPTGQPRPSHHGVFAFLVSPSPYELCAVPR

in vitro [3] = details: rat, liver microsomes
Cytochrome P450 3A4 = Cytochrome P450 3A4 (Homo sapiens, UniProt P08684); assay: Inhibition of CYP3A4; format: ADME
Sequence of Cytochrome P450 3A4 (P08684 whole entry): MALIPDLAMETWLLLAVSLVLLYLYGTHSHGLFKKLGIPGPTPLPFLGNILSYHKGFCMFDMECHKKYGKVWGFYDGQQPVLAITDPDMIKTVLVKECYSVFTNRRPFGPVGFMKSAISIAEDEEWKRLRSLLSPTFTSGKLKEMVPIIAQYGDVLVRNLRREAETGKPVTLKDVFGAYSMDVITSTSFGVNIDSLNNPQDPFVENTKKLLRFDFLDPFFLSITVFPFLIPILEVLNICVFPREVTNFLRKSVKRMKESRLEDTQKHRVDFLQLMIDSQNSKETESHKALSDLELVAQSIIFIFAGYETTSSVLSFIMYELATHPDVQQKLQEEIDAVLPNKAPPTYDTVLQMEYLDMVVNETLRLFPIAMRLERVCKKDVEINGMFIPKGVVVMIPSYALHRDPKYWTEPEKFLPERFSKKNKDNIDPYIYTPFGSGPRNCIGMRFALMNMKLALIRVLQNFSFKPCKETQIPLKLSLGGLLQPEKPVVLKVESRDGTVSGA

Bile acid receptor = target: T2, Bile acid receptor (Homo sapiens, UniProt Q96RI1); assay: Activity against FXR
T2 sequence (Q96RI1 whole entry): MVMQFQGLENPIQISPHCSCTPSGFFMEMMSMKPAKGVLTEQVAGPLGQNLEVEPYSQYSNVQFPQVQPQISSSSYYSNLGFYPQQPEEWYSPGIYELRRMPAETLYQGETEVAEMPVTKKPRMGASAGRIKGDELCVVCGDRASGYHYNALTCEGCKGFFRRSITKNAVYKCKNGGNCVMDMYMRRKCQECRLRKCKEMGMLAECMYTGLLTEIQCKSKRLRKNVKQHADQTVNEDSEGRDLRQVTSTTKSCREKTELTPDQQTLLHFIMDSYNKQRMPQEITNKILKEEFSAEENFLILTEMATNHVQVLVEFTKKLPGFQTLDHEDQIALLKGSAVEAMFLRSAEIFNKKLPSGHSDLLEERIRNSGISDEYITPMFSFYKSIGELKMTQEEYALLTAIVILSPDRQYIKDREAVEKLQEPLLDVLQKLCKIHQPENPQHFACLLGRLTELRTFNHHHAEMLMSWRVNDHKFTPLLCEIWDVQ

Glucocorticoid receptor = target: T3, Glucocorticoid receptor (Homo sapiens, UniProt P04150); assay: Activity against GR
T3 sequence (P04150 whole entry): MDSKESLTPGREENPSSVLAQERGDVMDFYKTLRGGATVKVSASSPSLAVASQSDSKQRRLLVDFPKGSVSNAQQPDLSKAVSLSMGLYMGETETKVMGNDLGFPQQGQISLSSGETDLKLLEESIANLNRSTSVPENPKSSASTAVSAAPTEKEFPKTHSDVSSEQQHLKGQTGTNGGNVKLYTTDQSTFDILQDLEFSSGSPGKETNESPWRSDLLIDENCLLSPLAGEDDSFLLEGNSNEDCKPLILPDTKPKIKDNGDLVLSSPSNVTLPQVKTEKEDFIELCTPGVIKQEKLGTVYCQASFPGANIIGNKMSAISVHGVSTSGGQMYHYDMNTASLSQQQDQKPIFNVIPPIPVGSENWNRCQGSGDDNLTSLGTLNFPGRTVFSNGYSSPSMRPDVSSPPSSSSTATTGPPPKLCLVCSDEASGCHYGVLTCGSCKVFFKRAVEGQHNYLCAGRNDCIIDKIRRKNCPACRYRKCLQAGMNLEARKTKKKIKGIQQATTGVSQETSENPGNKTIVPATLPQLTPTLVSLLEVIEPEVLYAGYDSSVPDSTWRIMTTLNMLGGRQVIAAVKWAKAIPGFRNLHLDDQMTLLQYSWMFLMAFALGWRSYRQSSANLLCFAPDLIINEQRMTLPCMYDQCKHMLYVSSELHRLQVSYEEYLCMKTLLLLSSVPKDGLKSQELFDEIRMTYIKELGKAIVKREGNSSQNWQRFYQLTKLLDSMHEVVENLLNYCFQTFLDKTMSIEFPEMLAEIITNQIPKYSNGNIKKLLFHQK

[4] = target: T1, 11-beta-hydroxysteroid dehydrogenase 1; assay: Inhibition of recombinant 11betaHSD1 expressed in CHO cells assessed as [3H]-cortisone to [3H]-cortisol by microscintillation plate reader in presence of plasma; format: cell-based
[5] = target: 17-beta-hydroxysteroid dehydrogenase type 1 (Homo sapiens) (UniProt P14061); assay: Inhibition of 17betaHSD1
Sequence of 17-beta-hydroxysteroid dehydrogenase type 1 (Homo sapiens) (P14061 whole entry, looked up): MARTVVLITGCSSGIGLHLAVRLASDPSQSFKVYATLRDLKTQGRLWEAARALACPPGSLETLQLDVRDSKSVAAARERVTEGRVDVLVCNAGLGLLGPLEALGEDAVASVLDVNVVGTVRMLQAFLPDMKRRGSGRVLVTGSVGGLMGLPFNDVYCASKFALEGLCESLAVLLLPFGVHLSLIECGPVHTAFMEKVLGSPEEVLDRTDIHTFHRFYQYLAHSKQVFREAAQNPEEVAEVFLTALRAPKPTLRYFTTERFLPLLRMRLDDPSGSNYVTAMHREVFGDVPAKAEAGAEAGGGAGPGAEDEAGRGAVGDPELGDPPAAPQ

[6] = AUC in rat at 1 umol/kg, iv and 5 umol/kg, po; details: plasma
in vitro [7] = details: rat, hepatocytes
Description: Metabolic stability in rat hepatocytes assessed as hepatic clearance

[8] = Clearance in rat at 1 umol/kg, iv and 5 umol/kg, po; details: in vivo
[9] = target: T4, 3 beta-hydroxysteroid dehydrogenase/Delta 5-->4-isomerase type 2 (Homo sapiens, UniProt P26439); assay: Inhibition of 3betaHSD2
T4 sequence (P26439 whole entry): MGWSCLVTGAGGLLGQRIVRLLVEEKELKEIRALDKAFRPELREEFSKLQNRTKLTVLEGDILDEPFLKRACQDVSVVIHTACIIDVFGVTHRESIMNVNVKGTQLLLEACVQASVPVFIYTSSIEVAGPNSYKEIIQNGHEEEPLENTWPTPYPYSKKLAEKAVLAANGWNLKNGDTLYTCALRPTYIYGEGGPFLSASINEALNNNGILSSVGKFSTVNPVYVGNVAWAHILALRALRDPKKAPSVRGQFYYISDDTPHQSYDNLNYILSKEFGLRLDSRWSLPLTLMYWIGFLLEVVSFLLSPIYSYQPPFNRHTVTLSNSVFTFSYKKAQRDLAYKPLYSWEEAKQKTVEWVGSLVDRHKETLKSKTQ

[10] = Oral bioavailability in rat at 1 umol/kg, iv and 5 umol/kg, po; details: in vivo
Rattus norvegicus = assay: Volume of distribution in rat at 1 umol/kg, iv and 5 umol/kg, po; details: in vivo
[11] = target: T5, 11-beta-hydroxysteroid dehydrogenase type 2 (Homo sapiens, UniProt P80365); assay: Inhibition of 11betaHSD2
T5 sequence (P80365 whole entry): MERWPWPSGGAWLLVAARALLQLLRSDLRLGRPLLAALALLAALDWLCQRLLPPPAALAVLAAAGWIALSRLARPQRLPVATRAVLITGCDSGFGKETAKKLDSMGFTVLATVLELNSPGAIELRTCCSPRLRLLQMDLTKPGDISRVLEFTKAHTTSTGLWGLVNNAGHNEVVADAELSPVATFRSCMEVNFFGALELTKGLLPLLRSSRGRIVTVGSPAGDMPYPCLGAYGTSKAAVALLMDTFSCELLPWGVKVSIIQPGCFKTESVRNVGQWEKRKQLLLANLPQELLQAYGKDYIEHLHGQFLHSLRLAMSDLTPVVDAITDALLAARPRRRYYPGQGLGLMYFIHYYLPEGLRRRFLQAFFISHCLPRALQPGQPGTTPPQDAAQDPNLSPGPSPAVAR

[12] = Mean residence time in rat at 1 umol/kg, iv and 5 umol/kg, po; details: in vivo

T1 sequence (P28845 whole entry): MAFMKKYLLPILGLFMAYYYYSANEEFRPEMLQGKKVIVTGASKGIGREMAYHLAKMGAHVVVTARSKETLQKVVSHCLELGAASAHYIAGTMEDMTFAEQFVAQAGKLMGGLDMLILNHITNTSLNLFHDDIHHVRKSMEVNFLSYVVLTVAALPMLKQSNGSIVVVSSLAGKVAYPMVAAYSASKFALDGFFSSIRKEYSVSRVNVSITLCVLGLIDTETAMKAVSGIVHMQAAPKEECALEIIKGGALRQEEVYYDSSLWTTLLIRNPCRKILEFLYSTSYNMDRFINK

Row | Compound | IC50 [1] | IC50 [2] | IC50 (Cytochrome P450 2C9) | IC50 (Cytochrome P450 2D6) | half-life (in vitro [3]) | IC50 (Cytochrome P450 3A4) | other results
1 | CC(C)(C)CC(=O)N[C@@H]1CCN(C(=O)OC2C3CC4CC(C3)CC2C4)C1 (some centres undefined) | 0.068 µM | – | – | – | – | – | –
2 | NC(=O)[C@]12CC3CC(C1)[C@@H](OC(=O)N1CC[C@@H](Nc4nnc(C(F)(F)F)s4)C1)C(C3)C2 | 0.0213 µM | > 0.1 µM | – | – | – | – | –
3 | N#Cc1cccnc1N[C@H]1CCN(C(=O)O[C@H]2C3CC4CC2C[C@](C(N)=O)(C4)C3)C1 | 0.0026 µM | 0.0076 µM | > 30 µM | > 30 µM | 25 min | 18.6 µM | –
4 | OC1C2CC3CC(C2)CC1C3 (centres undefined) [ADAMANTAN-2-OL] | – | – | 22 µM | > 30 µM | 2 min | > 30 µM | –
5 | Cc1cc(N[C@@H]2CCN(C(=O)O[C@H]3C4CC5CC3C[C@](C(N)=O)(C5)C4)C2)nc(C)n1 | 0.0207 µM | > 0.1 µM | – | – | – | – | –
6 | N#Cc1ccc(N[C@H]2CCN(C(=O)O[C@H]3C4CC5CC3C[C@](C(N)=O)(C5)C4)C2)nc1 | 0.0017 µM | 0.0052 µM | 20 µM | 16.6 µM | 25 min | 26.6 µM | –
7 | CC(C)(C)OC(=O)N[C@@H]1CCN(C(=O)O[C@H]2C3CC4CC2C[C@](C(N)=O)(C4)C3)C1 | 0.0034 µM | 0.0075 µM | > 30 µM | > 30 µM | 30 min | > 30 µM | EC50 (Bile acid receptor): > 10 µM; EC50 (Glucocorticoid receptor): > 10 µM
8 | NC(=O)[C@]12CC3CC(C1)[C@@H](OC(=O)N1CC[C@@H](Nc4ncccc4C(F)(F)F)C1)C(C3)C2 | – | – | 9.4 µM | – | 30 min | 3.3 µM | –
9 | CC(C)(C)OC(=O)N[C@@H]1CCN(C(=O)OC2C3CC4CC(C3)CC2C4)C1 (some centres undefined) | – | – | 11.4 µM | > 30 µM | 2 min | > 30 µM | –
10 | NC(=O)[C@]12CC3CC(C1)[C@@H](OC(=O)N1CC[C@@H](Nc4ccc(C(F)(F)F)cn4)C1)C(C3)C2 | – | – | 4.1 µM | 11.6 µM | 47 min | 7.2 µM | –
11 | O=C(OC1C2CC3CC(C2)CC1C3)N1CCCCC1 (centres undefined) | – | – | – | – | 2 min | – | –
12 | CC(C)(C)OC(=O)N[C@H]1CCN(C(=O)O[C@H]2C3CC4CC2C[C@](C(N)=O)(C4)C3)C1 | 0.0044 µM | 0.0176 µM | – | – | – | – | –
13 | CC(C)(C)OC(=O)N[C@@H]1CCN(C(=O)O[C@H]2C3CC4CC2C[C@](C(C)(C)O)(C4)C3)C1 | 0.098 µM | > 0.1 µM | – | – | – | – | –
14 | NC(=O)[C@]12CC3CC(C1)[C@@H](OC(=O)N1CC[C@H](Nc4ccc(C(F)(F)F)cn4)C1)C(C3)C2 | – | – | 2.4 µM | 11.6 µM | > 60 min | 10.3 µM | –
15 | N#Cc1cccnc1N[C@@H]1CCN(C(=O)O[C@H]2C3CC4CC2C[C@](C(N)=O)(C4)C3)C1 | 0.00087 µM | 0.0004 µM | > 30 µM | > 30 µM | > 60 min | 17.1 µM | IC50 [4]: 0.0024 µM; IC50 [5]: > 10 µM; AUC [6]: 0.398 µM·h; CLhep predicted (in vitro [7]): 41 mL/min/kg; clearance [8]: 42 mL/min/kg; IC50 [9]: > 10 µM; bioavailability [10]: 42%; Vd (Rattus norvegicus): 0.7 L/kg; IC50 [11]: 7.35 µM; MRT [12]: 18 min
16 | N#Cc1ccc(N[C@@H]2CCN(C(=O)O[C@H]3C4CC5CC3C[C@](C(N)=O)(C5)C4)C2)nc1 | 0.0015 µM | 0.0027 µM | 23.1 µM | 25 µM | 46 min | 14.2 µM | IC50 [4]: 0.0032 µM; IC50 [5]: > 10 µM; AUC [6]: 0.209 µM·h; CLhep predicted (in vitro [7]): 33 mL/min/kg; clearance [8]: 80 mL/min/kg; IC50 [9]: > 10 µM; bioavailability [10]: 27%; Vd (Rattus norvegicus): 2.2 L/kg; IC50 [11]: 8.65 µM; MRT [12]: 30 min
17 | NC(=O)[C@]12CC3CC(C1)[C@@H](OC(=O)N1CC[C@@H](Nc4cccc(C(F)(F)F)n4)C1)C(C3)C2 | – | – | 2.4 µM | 5.9 µM | 7 min | 4.8 µM | –
18 | NC(=O)[C@]12CC3CC(C1)[C@H](OC(=O)N1CC[C@H](Nc4ncccc4C(F)(F)F)C1)C(C3)C2 | – | – | 8 µM | > 30 µM | 11 min | 8.5 µM | –
